Measurements as given in patent publication US20090032427A1, “Receptacles and Kits, Such as for Dry Powder Packaging” (Nektar Therapeutics, priority 2005, published 2009).

How the values were obtained:
[1] = cited from earlier work
[2] = amphotericin B lung-residence half-life (bronchioalveolar lavage / lung tissue homogenization); format: in vivo; details: pulmonary administration
fungus = test: minimum inhibitory concentration (MIC) of amphotericin B; format: cell-based; details: midrange of the MIC range, 300′ of FIG. 25
Procedure: In one version, an aerosolizeable pharmaceutical composition comprising amphotericin B is administered to the lungs and/or nasal cavity of a patient in a manner that results in an amphotericin B concentration greater than a minimum inhibitory concentration (MIC) of the fungus. The MIC is defined as the lowest concentration of amphotericin B that inhibits fungal growth. The MIC may be expressed as a particular concentration value or as a range of concentrations. A method according to one or more embodiments of the present invention administers a sufficient amount of the pharmaceutical composition to achieve a target lung concentration of amphotericin B that falls within the range of MIC values or is above a particular MIC value. In another version, the target lung concentration of amphotericin B exceeds the MIC range. In another version, the target lung concentration of amphotericin B exceeds the lowest value in an MIC range. […] As used herein, unless otherwise specified, the MIC value shall be taken to be the particular value when a particular MIC value is determined and shall be taken to be a midrange value when a range of MIC values is determined. […]
The MIC value for amphotericin B in this version has been determined to range from about 0.5 μg/g to about 4 μg/g, as shown by block 300. […]

SMILES | solubility in water [1] | amphotericin B lung-residence half-life in lung epithelial fluid ([2]; lung epithelial fluid, measured by bronchioalveolar lavage) | amphotericin B lung-residence half-life in lung tissue ([2]; lung tissue, measured by lung tissue homogenization) | midrange MIC value (fungus)
CCCCCCCCCCCCCCCC(=O)OC[C@H](COP(=O)([O-])OCC[N+](C)(C)C)OC(=O)CCCCCCCCCCCCCCC [DPPC, dipalmitoylphosphatidylcholine] | about 10^−10 mol/L |  |  | 
C[C@@H]1[C@H](O)[C@@H](C)/C=C/C=C/C=C/C=C/C=C/C=C/C=C/[C@H](O[C@@H]2O[C@H](C)[C@@H](O)[C@H](N)[C@@H]2O)C[C@@H]2O[C@](O)(C[C@@H](O)C[C@@H](O)[C@H](O)CC[C@@H](O)C[C@@H](O)CC(=O)O[C@H]1C)C[C@H](O)[C@H]2C(=O)O [amphotericin B] |  | at least 10 hours | at least 1 week | about 2.25 μg/g
